Structures can show the parent of a compound that is named as a salt.
Columns and labels:
[1] = system: Pseudomonas aeruginosa; test: Microorganism assimilation; details: for OD (turbidity): 660 nm; for Assimilation by microorganism: conclusion from Table 8
Procedure: 100 ml of the above liquid medium was placed in a 500 ml Sakaguchi flask, and sterilized at 120° C for 15 minutes in an autoclave in a customary manner. After cooling, the culture medium was inoculated with a prescribed amount of a suspension of the pre-cultured microorganism and cultivated at 30° C with shaking 120 times per minute.
Changes with time in the pH, turbidity, number of living cells were determined.
The turbidity was determined as follows: 2 ml of the culture broth was collected, and the precipitate was separated with a centrifugal separator. The precipitate was washed with acetone, and suspended in 2 ml of distilled water. The turbidity (OD) of the suspension at 660 nm was measured.

[2] = Fixing effect: HS-GC (II), analysis of volatilized portion after standing 15 minutes; assay type: physicochemical; details: controlling agent 15%, model perfume 5%
Procedure: (§1) Then, the fixing effect was evaluated by a second head space gas chromatographic (II) method (HS-GC (II)). Specifically, a perfume containing 0.7 g of a perfume controlling agent was coated on a sheet of paper having a predetermined thickness, area (11.5 × 7.5 cm), and weight (about 2.9 g). The coated paper was allowed to stand for 15 minutes in an open space in a room (6 × 4 × 2.5 m) maintained at a humidity of 50% at a ventilation rate of 1,500 m^3 /hr. The paper was then transferred into a 1,000 ml Erlenmeyer flask, and the flask was tightly sealed. After a lapse of 15 minutes, the volatilized portion was collected and analyzed by gas chromatography under the conditions shown Table A above. Furthermore, the residue on the paper was extracted with acetone, and analyzed by gas chromatography using conditions shown in Table B below.
(§2) The composition of the model perfume used was as follows:
Model Perfume: 5% by weight
95% Ethanol: 95% by weight
The composition of the perfume containing a perfume controlling agent was as follows:
Perfume Controlling Agent: 15% by weight
95% Ethanol: 80% by weight

[3] = Fixing effect: analysis of residue on paper after standing 15 minutes; assay type: physicochemical
Procedure: as §1
Column: 5% FFAP (free fatty acid polyester; a trade name for a product of Nippon Chromato Co., Ltd.) on diatomaceous earth (2m)
Column Temperature: 80° C (5 minutes, isothermal) to 220° C (4° C/min.)
Injector Temperature: 260° C
Detector Temperature: 260° C
Detector: Flame Ionization Detector
Carrier Gas: He (40 ml/min.)
as §2
The values shown in Table 5 above were obtained by calculating the areas of the perfumes while the area of musk ketone measured by gas chromatography was taken as 1. (This calculating procedure was adopted because musk ketone has a high boiling point, and scarcely volatilizes at 30° C.)

[4] = Acute oral toxicity (LD50); details: acute oral toxicity
[5] = Linalyl Acetate (not present: 39.0%)
[6] = Musk ketone (not present: 0.0%)
[7] = Citral (not present: 1.5), area of musk ketone taken as 1
[8] = Limonene (not present: 0.3), area of musk ketone taken as 1
[9] = Linalool (not present: 6.4), area of musk ketone taken as 1
[10] = Linalyl Acetate (not present: 5.1), area of musk ketone taken as 1
[11] = Musk Ketone (reference, taken as 1; not present: 1.0)
[12] = Pinene (not present: 0.0), area of musk ketone taken as 1

Molecule	pH ([1]; 0 days elapsed)	Number of Living Cells ([1]; 2 days elapsed)	pH ([1]; 2 days elapsed)	OD (turbidity) ([1]; 2 days elapsed)	Number of Living Cells ([1]; 7 days elapsed)	pH ([1]; 7 days elapsed)	OD (turbidity) ([1]; 7 days elapsed)	Number of Living Cells ([1]; 14 days elapsed)	pH ([1]; 14 days elapsed)	OD (turbidity) ([1]; 14 days elapsed)	Assimilation by microorganism [1]	Analysis of Volatilized Portion after Standing 15 Minutes (HS-GC (II) Method) ([2]; Citral (not present: 3.5%)) [%]	Analysis of Volatilized Portion after Standing 15 Minutes (HS-GC (II) Method) ([2]; Limonene (not present: 2.6%)) [%]	Analysis of Volatilized Portion after Standing 15 Minutes (HS-GC (II) Method) ([2]; Linalool (not present: 45.2%)) [%]	Analysis of Volatilized Portion after Standing 15 Minutes (HS-GC (II) Method) [2, 5] [%]	Analysis of Volatilized Portion after Standing 15 Minutes (HS-GC (II) Method) [2, 6] [%]	Analysis of Volatilized Portion after Standing 15 Minutes (HS-GC (II) Method) ([2]; Pinene (not present: 0.2%)) [%]	LD50 [4] [mL/kg]	also measured
CCCCC(CC)COC(=O)CCCCC(=O)OCC(CC)CCCC (stereo not drawn) [Di-2-ethylhexyl Adipate, di-2-ethylhexyl adipate]	6.86	1.3 × 10^6	6.60	0.008	5.0 × 10^7	6.30	0.01	1.4 × 10^9	6.10	0.15	gradually assimilated as time passed	–	–	–	–	–	–	–	–
O=C(OCc1ccccc1)c1ccccc1 [Benzyl Benzoate, benzyl benzoate]	–	–	–	–	–	–	–	–	–	–	–	1.6	31.3	37.7	20.6	0.0	1.3	–	Analysis of Residue on Paper after Standing 15 Minutes (Area Ratio) [3, 7]: 1.8; Analysis of Residue on Paper after Standing 15 Minutes (Area Ratio) [3, 8]: 0.38; Analysis of Residue on Paper after Standing 15 Minutes (Area Ratio) [3, 9]: 8.1; Analysis of Residue on Paper after Standing 15 Minutes (Area Ratio) [3, 10]: 8; Analysis of Residue on Paper after Standing 15 Minutes (Area Ratio) [3, 11]: 1; Analysis of Residue on Paper after Standing 15 Minutes (Area Ratio) [3, 12]: 0
CCOC(=O)c1ccccc1C(=O)OCC [Diethyl Phthalate, diethyl phthalate]	6.86	2.5 × 10^6	6.86	0.001	4.2 × 10^4	6.86	0.001	5.2 × 10^5	6.86	0	not assimilated	1.2	31.3	40.5	18.4	0.0	0.9	–	–
dipropylene glycol	6.84	3.1 × 10^6	6.84	0	7.2 × 10^7	6.82	0.005	4.7 × 10^6	6.82	0	not assimilated	3.7	2.7	42.8	40.0	0.0	0.2	17.6	Analysis of Residue on Paper after Standing 15 Minutes (Area Ratio) [3, 7]: 1.1; Analysis of Residue on Paper after Standing 15 Minutes (Area Ratio) [3, 8]: 0; Analysis of Residue on Paper after Standing 15 Minutes (Area Ratio) [3, 9]: 4.9; Analysis of Residue on Paper after Standing 15 Minutes (Area Ratio) [3, 10]: 4.1; Analysis of Residue on Paper after Standing 15 Minutes (Area Ratio) [3, 11]: 1; Analysis of Residue on Paper after Standing 15 Minutes (Area Ratio) [3, 12]: 0
CCOC(=O)CC(O)(CC(=O)OCC)C(=O)OCC [Triethyl Citrate]	–	–	–	–	–	–	–	–	–	–	–	–	–	–	–	–	–	> 25	–
CC(O)CO (stereo not drawn) [Propylene Glycol]	–	–	–	–	–	–	–	–	–	–	–	–	–	–	–	–	–	23.9	–
CCCCCCCCCCCCCC(=O)OC(C)C [Isopropyl Myristate]	–	–	–	–	–	–	–	–	–	–	–	–	–	–	–	–	–	> 25	–
CC(C)OC(=O)CCCCC(=O)OC(C)C [Diisopropyl Adipate, diisopropyl adipate]	6.90	4.0 × 10^5	6.90	0.005	1.9 × 10^7	5.32	0.26	< 10^3	4.22	0.46	assimilated very well	–	–	–	–	–	–	–	–

From patent US4110626A, “Method for improving the quality of the fragrance of perfumes using aliphatic dibasic acid diesters” (Shiseido Co., Ltd., priority 1976, dated 1978)
